Assay results: patent publication US9549932B2, “2-(morpholin-4-yl)-1,7-naphthyridines” (BAYER PHARMA AKTIENGESELLSCHAFT, priority 2014, dated 2017)
pIC50: −log10 of the molar value. Where two headings read alike, the source gives them in different places.

Molecular target: full-length human ATR protein (Homo sapiens (Human), UniProt Q13535)
Assay: Binding assay ATR (TR-FRET tracer displacement)
Conditions: TR-FRET
Description: To determine of binding activity of the test compounds, full-length human ATR protein was expressed and purified together with ATRIP as described above. Furthermore, a fluorescently labelled compound (either tracer A or B as described above) was used as a tracer molecule. Detection of the binding event of the tracer was achieved by time-resolved fluorescence energy transfer (TR-FRET). We used an anti-GST-Terbium antibody (CisBio) that binds to the GST-tag at the N-terminus of ATR-kinase. […] Displacement of the fluorescent tracer by a test compound leads to a reduction of the TR-FRET-signal.
For the assay 50 nl of a 100-fold concentrated solution of the test compound in DMSO was pipetted into a black low volume 384well microtiter plate (MTP, Greiner Bio-One, Frickenhausen, Germany). […] The ATR-working solution was incubated for 30 min at 22° C. prior to dispensing to pre-form the complex of antiGST-Tb+GST-ATR+ATRIP. Then, 3 μl of the ATR-working solution were added to the test compound and the mixture was incubated for 10 min at 22° C. to allow pre-binding of the test compounds to ATR/ATRIP. Then, 2 μl of a 100 nM solution of either tracer A or B in assay buffer were added to the ATR-working solution. The resulting mixture was incubated for 30 min at 22° C. […] The dilution series were prepared separately before the assay on the level of the 100 fold concentrated solutions in DMSO by serial 1:3.4 dilutions in duplicate values for each concentration. IC50 values were calculated by a 4 parameter fit using standard software (GraphPad prism or equivalent).

[1] = tracer A, read-out: ATR binding (tracer A) IC50
[2] = tracer B, read-out: ATR binding (tracer B) IC50

Sequence of full-length human ATR protein (Q13535 other isoform, or with tags, fused parts or gaps): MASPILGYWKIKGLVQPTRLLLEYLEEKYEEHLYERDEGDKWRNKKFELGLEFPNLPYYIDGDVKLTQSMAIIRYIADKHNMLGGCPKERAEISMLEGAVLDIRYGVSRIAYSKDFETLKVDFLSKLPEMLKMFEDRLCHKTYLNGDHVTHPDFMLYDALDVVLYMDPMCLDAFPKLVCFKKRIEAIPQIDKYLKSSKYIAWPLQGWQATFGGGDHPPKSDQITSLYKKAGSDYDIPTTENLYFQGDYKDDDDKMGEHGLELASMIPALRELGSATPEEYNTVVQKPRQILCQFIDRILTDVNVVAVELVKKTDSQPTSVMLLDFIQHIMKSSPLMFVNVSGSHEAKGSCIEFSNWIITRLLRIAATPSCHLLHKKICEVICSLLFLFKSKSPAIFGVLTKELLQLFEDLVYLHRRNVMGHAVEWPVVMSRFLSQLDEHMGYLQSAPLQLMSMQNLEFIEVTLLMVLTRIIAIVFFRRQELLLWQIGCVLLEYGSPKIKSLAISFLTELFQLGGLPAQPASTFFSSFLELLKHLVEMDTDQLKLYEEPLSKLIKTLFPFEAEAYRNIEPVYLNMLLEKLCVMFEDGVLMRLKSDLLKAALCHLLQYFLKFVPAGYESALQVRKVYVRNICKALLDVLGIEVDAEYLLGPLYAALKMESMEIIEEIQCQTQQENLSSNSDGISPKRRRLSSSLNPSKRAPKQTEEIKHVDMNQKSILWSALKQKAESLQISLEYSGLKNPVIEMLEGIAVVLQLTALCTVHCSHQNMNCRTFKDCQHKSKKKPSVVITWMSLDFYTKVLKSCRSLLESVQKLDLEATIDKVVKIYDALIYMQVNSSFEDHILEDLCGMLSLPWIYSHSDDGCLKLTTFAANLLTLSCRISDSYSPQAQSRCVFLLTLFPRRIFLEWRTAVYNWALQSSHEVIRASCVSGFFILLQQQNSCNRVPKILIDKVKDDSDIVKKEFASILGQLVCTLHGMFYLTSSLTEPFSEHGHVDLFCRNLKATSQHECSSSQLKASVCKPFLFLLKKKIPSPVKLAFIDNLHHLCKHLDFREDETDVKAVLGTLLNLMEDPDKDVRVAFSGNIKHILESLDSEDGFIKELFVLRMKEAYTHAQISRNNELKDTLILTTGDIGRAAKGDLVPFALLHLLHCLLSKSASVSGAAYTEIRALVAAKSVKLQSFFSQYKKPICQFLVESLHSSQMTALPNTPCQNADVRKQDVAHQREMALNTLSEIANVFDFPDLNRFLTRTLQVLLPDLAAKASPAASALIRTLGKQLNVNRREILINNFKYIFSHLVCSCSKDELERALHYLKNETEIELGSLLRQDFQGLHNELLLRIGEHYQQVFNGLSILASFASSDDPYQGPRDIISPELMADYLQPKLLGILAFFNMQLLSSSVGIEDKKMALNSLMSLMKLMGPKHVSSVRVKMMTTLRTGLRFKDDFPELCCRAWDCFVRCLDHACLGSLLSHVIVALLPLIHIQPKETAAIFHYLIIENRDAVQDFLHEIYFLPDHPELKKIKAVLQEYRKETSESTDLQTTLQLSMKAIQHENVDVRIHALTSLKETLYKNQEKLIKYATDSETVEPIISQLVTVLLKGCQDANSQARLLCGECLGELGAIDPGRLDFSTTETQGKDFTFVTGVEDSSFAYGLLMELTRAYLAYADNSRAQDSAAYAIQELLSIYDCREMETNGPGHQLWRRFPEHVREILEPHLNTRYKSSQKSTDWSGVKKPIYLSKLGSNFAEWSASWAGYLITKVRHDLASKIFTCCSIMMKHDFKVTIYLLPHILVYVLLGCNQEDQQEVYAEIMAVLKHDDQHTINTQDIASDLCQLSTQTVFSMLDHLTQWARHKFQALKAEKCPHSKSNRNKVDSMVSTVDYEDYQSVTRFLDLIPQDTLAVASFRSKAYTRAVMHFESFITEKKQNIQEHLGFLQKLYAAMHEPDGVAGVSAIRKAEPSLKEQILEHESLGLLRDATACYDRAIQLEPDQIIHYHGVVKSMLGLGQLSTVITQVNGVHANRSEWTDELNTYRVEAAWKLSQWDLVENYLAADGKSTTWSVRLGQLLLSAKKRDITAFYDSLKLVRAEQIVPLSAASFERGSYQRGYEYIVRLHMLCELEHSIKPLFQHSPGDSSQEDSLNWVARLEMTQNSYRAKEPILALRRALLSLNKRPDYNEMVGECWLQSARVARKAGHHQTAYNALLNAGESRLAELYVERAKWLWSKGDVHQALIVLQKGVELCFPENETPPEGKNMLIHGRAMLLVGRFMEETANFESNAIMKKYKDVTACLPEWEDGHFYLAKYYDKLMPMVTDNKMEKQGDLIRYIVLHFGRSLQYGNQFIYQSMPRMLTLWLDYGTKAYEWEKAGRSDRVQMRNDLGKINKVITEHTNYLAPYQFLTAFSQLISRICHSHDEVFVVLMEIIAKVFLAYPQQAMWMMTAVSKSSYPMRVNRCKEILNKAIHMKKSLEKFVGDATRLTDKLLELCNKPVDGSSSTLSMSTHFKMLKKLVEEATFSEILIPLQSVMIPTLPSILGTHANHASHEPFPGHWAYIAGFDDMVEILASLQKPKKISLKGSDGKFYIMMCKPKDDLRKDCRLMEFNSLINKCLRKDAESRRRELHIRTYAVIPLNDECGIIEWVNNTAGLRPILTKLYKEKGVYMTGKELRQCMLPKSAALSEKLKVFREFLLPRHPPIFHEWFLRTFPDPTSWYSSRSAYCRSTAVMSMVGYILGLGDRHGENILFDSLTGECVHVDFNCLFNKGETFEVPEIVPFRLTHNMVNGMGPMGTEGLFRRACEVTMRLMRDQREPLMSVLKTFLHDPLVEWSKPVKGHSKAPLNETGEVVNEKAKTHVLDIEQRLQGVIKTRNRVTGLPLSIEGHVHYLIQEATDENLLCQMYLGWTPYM
Sequence of full-length human ATR protein (Q8WXE1 other isoform, or with tags, fused parts or gaps partner): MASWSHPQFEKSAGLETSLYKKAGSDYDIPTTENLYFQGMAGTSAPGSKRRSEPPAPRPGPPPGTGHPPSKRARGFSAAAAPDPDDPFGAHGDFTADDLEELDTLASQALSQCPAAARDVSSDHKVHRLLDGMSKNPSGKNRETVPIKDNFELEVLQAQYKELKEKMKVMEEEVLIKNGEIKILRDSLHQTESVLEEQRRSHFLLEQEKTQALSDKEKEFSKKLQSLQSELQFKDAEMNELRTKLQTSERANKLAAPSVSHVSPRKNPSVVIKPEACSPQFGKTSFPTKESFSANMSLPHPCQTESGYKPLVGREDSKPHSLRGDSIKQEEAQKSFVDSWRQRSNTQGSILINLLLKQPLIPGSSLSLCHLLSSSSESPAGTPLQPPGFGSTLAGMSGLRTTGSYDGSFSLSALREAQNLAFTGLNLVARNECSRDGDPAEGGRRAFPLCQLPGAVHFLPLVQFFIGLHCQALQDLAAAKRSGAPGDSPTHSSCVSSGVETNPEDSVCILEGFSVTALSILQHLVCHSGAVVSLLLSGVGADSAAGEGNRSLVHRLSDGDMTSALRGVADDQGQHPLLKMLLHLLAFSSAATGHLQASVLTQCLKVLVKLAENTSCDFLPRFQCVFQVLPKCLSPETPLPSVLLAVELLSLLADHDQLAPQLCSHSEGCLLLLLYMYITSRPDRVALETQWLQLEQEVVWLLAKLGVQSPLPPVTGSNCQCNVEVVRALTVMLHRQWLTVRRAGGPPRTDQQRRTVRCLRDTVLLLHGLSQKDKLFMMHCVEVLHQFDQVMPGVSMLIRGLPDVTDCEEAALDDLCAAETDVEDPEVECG

Question: With `Fc1ccc(-c2cc(N3CCOCC3)nc3c(-c4ccn[nH]4)nccc23)c(F)c1` [Example 340, 4-(2,4-difluorophenyl)-2-(morpholin-4-yl)-8-(1H-pyrazol-5-yl)-1,7-naphthyridine] as the compound, how does the pIC50 [1] read?
Answer: 7.47

Question: With `CC(C)(O)COc1cc(N2CCOCC2)nc2c(-c3ccn[nH]3)nccc12` [Example 45, 2-methyl-1-{[2-(morpholin-4-yl)-8-(1H-pyrazol-5-yl)-1,7-naphthyridin-4-yl]oxy}propan-2-ol] as the compound, how does the pIC50 [1] read?
Answer: 6.53

Question: With `Cc1ccc(C)c(-c2cc(N3CCOCC3)nc3c(-c4ccn[nH]4)nccc23)c1` [Example 334, 4-(2,5-dimethylphenyl)-2-(morpholin-4-yl)-8-(1H-pyrazol-5-yl)-1,7-naphthyridine] as the compound, how does the pIC50 [1] read?
Answer: 7.24

Question: `CC1CCN(c2cc(N3CCOCC3)nc3c(-c4ccn[nH]4)nccc23)CC1` [Example 415, 4-(4-methylpiperidin-1-yl)-2-(morpholin-4-yl)-8-(1H-pyrazol-5-yl)-1,7-naphthyridine] was tested. Which pIC50 [1] did it give?
Answer: 7.49

Question: With `CS(=N)(=O)c1ccc(-c2cc(N3CCOCC3)nc3c(-c4ccn[nH]4)nccc23)cc1` (centres unmarked) [Example 2] as the compound, how does the pIC50 [1] read?
Answer: 7.02

Question: And the pIC50 [2]?
Answer: 7.42

Question: How did the pIC50 [1] turn out when `Cc1n[nH]cc1-c1cc(N2CCOC[C@H]2C)nc2c(-c3ccn[nH]3)nccc12` [Example 266, 2-[(3R)-3-methylmorpholin-4-yl]-4-(3-methyl-1H-pyrazol-4-yl)-8-(1H-pyrazol-5-yl)-1,7-naphthyridine] was run?
Answer: 8.08

Question: With `CN(C)C(=O)c1cccc(-c2cc(N3CCOCC3)nc3c(-c4ccn[nH]4)nccc23)c1` [Example 288, N,N-dimethyl-3-[2-(morpholin-4-yl)-8-(1H-pyrazol-5-yl)-1,7-naphthyridin-4-yl]benzamide] as the compound, how does the pIC50 [1] read?
Answer: 6.46

Question: With `CC(C)Oc1cc(N2[C@H](C)COC[C@@H]2C)nc2c(-c3ccn[nH]3)nccc12` [Example 58, 2-[(3R,5S)-3,5-dimethylmorpholin-4-yl]-4-isopropoxy-8-(1H-pyrazol-5-yl)-1,7-naphthyridine] as the compound, how does the pIC50 [1] read?
Answer: 6.38

Question: And the pIC50 [2]?
Answer: 6.21

Question: With `C[C@@H]1COCCN1c1cc(OCCN)c2ccnc(-c3ccn[nH]3)c2n1` [Example 55, 2-({2-[(3R)-3-methylmorpholin-4-yl]-8-(1H-pyrazol-5-yl)-1,7-naphthyridin-4-yl}oxy)ethanamine] as the compound, how does the pIC50 [1] read?
Answer: 6.79

Question: How did the pIC50 [1] turn out when `c1cc(-c2nccc3c(N4CCCCC4)cc(N4CCOCC4)nc23)[nH]n1` [Example 408, 2-(morpholin-4-yl)-4-(piperidin-1-yl)-8-(1H-pyrazol-5-yl)-1,7-naphthyridine] was run?
Answer: 7.19

Question: With `OCC1CCN(c2cc(N3CCOCC3)nc3c(-c4ccn[nH]4)nccc23)CC1` [Example 429, {1-[2-(morpholin-4-yl)-8-(1H-pyrazol-5-yl)-1,7-naphthyridin-4-yl]piperidin-4-yl}methanol] as the compound, how does the pIC50 [1] read?
Answer: 7.35

Question: `C[C@@H]1COCCN1c1cc(C2(S(C)(=O)=O)CC2)c2ccnc(-c3ccn[nH]3)c2n1` [Example 286, 2-[(3R)-3-methylmorpholin-4-yl]-4-[1-(methylsulfonyl)cyclopropyl]-8-(1H-pyrazol-5-yl)-1,7-naphthyridine] was tested. Which pIC50 [1] did it give?
Answer: 7.84

Question: How did the pIC50 [1] turn out when `C[C@@H]1COCCN1c1cc(N(C)CC(C)(C)C)c2ccnc(-c3ccn[nH]3)c2n1` [Example 83, N-(2,2-dimethylpropyl)-N-methyl-2-[(3R)-3-methylmorpholin-4-yl]-8-(1H-pyrazol-5-yl)-1,7-naphthyridin-4-amine] was run?
Answer: 8.27

Question: How did the pIC50 [1] turn out when `FC(F)(F)c1cccc(-c2cc(N3CCOCC3)nc3c(-c4ccn[nH]4)nccc23)c1` [Example 303, 2-(morpholin-4-yl)-8-(1H-pyrazol-5-yl)-4-[3-(trifluoromethyl)phenyl]-1,7-naphthyridine] was run?
Answer: 7.06

Question: `O=S1(=O)CCC12CN(c1cc(N3CCOCC3)nc3c(-c4ccn[nH]4)nccc13)C2` [Example 425, 4-(1,1-dioxido-1-thia-6-azaspiro[3.3]hept-6-yl)-2-(morpholin-4-yl)-8-(1H-pyrazol-5-yl)-1,7-naphthyridine] was tested. Which pIC50 [1] did it give?
Answer: 6.00

Question: How did the pIC50 [1] turn out when `O=C(NC1CC1)c1cccc(-c2cc(N3CCOCC3)nc3c(-c4ccn[nH]4)nccc23)c1` [Example 330, N-cyclopropyl-3-[2-(morpholin-4-yl)-8-(1H-pyrazol-5-yl)-1,7-naphthyridin-4-yl]benzamide] was run?
Answer: 7.04

Question: `C[C@@H]1COCCN1c1cc(-c2ccn(CC(C)(C)O)n2)c2ccnc(-c3ccn[nH]3)c2n1` [Example 161, 2-methyl-1-(3-{2-[(3R)-3-methylmorpholin-4-yl]-8-(1H-pyrazol-5-yl)-1,7-naphthyridin-4-yl}-1H-pyrazol-1-yl)propan-2-ol] was tested. Which pIC50 [1] did it give?
Answer: 7.20

Question: How did the pIC50 [1] turn out when `Cc1noc(C)c1-c1cc(N2CCOCC2)nc2c(-c3ccn[nH]3)nccc12` [Example 379, 4-(3,5-dimethyl-1,2-oxazol-4-yl)-2-(morpholin-4-yl)-8-(1H-pyrazol-5-yl)-1,7-naphthyridine] was run?
Answer: 7.16

Question: With `C[C@@H]1COCCN1c1cc(C2=CCCN(C)C2)c2ccnc(-c3ccn[nH]3)c2n1` [Example 242, 2-[(3R)-3-methylmorpholin-4-yl]-4-(1-methyl-1,2,5,6-tetrahydropyridin-3-yl)-8-(1H-pyrazol-5-yl)-1,7-naphthyridine] as the compound, how does the pIC50 [1] read?
Answer: 7.02

Question: How did the pIC50 [1] turn out when `OCc1cccc(-c2cc(N3CCOCC3)nc3c(-c4ccn[nH]4)nccc23)c1` [Example 313, {3-[2-(morpholin-4-yl)-8-(1H-pyrazol-5-yl)-1,7-naphthyridin-4-yl]phenyl}methanol] was run?
Answer: 7.54

Question: With `C[C@@H]1COCCN1c1cc(OC(F)F)c2ccnc(-c3ccn[nH]3)c2n1` [Example 172, 4-(difluoromethoxy)-2-[(3R)-3-methylmorpholin-4-yl]-8-(1H-pyrazol-5-yl)-1,7-naphthyridine] as the compound, how does the pIC50 [1] read?
Answer: 7.08

Question: What does the source list for `CC(C)S(=O)(=O)c1ccc(-c2cc(N3CCOC[C@H]3C)nc3c(-c4ccn[nH]4)nccc23)cc1` [Example 151, 4-[4-(isopropylsulfonyl)phenyl]-2-[(3R)-3-methylmorpholin-4-yl]-8-(1H-pyrazol-5-yl)-1,7-naphthyridine]?
Answer: pIC50 [1]: 7.29; pIC50 [2]: 7.63

Question: With `C[C@@H]1COCCN1c1cc(-c2ccc(F)cc2F)c2ccnc(-c3ccn[nH]3)c2n1` [Example 123, 4-(2,4-difluorophenyl)-2-[(3R)-3-methylmorpholin-4-yl]-8-(1H-pyrazol-5-yl)-1,7-naphthyridine] as the compound, how does the pIC50 [1] read?
Answer: 7.67

Question: `C[C@@H]1COCCN1c1cc(-c2ccnn2CC(F)(F)F)c2ccnc(-c3ccn[nH]3)c2n1` [Example 156, 2-[(3R)-3-methylmorpholin-4-yl]-8-(1H-pyrazol-5-yl)-4-[1-(2,2,2-trifluoroethyl)-1H-pyrazol-5-yl]-1,7-naphthyridine] was tested. Which pIC50 [1] did it give?
Answer: 7.10

Question: `c1cc(-c2nccc3c(OCC4CCOCC4)cc(N4CCOCC4)nc23)[nH]n1` [Example 287, 2-(morpholin-4-yl)-8-(1H-pyrazol-5-yl)-4-(tetrahydro-2H-pyran-4-ylmethoxy)-1,7-naphthyridine] was tested. Which pIC50 [1] did it give?
Answer: 6.17

Question: And the pIC50 [2]?
Answer: 6.34

Question: `COCCS(C)(=O)=Nc1cc(N2CCOC[C@H]2C)nc2c(-c3ccn[nH]3)nccc12` (stereo partly drawn) [Example 274, 4-{[(2-methoxyethyl)(methyl)oxido-λ^6-sulfanylidene]amino}-2-[(3R)-3-methylmorpholin-4-yl]-8-(1H-pyrazol-5-yl)-1,7-naphthyridine] was tested. Which pIC50 [1] did it give?
Answer: 7.20

Question: `Clc1cc(Cl)cc(-c2cc(N3CCOCC3)nc3c(-c4ccn[nH]4)nccc23)c1` [Example 344, 4-(3,5-dichlorophenyl)-2-(morpholin-4-yl)-8-(1H-pyrazol-5-yl)-1,7-naphthyridine] was tested. Which pIC50 [1] did it give?
Answer: 6.76

Question: `Cc1cc(-c2cc(N3CCOCC3)nc3c(-c4ccn[nH]4)nccc23)ccn1` [Example 188, 4-(2-methylpyridin-4-yl)-2-(morpholin-4-yl)-8-(1H-pyrazol-5-yl)-1,7-naphthyridine] was tested. Which pIC50 [1] did it give?
Answer: 6.60

Question: How did the pIC50 [1] turn out when `COc1ccsc1-c1cc(N2CCOC[C@H]2C)nc2c(-c3ccn[nH]3)nccc12` [Example 235, 4-(3-methoxythiophen-2-yl)-2-[(3R)-3-methylmorpholin-4-yl]-8-(1H-pyrazol-5-yl)-1,7-naphthyridine] was run?
Answer: 7.67

Question: `C[C@@H]1COCCN1c1cc(-c2cnc3n2CCC3)c2ccnc(-c3ccn[nH]3)c2n1` [Example 118, 4-(6,7-dihydro-5H-pyrrolo[1,2-a]imidazol-3-yl)-2-[(3R)-3-methylmorpholin-4-yl]-8-(1H-pyrazol-5-yl)-1,7-naphthyridine] was tested. Which pIC50 [1] did it give?
Answer: 8.00

Question: With `c1cc(-c2nccc3c(-c4cc[nH]c4)cc(N4CCOCC4)nc23)[nH]n1` [Example 212, 2-(morpholin-4-yl)-8-(1H-pyrazol-5-yl)-4-(1H-pyrrol-3-yl)-1,7-naphthyridine] as the compound, how does the pIC50 [1] read?
Answer: < 4.70

Question: `CC(C)C(C)(O)c1cc(N2CCOC[C@H]2C)nc2c(-c3ccn[nH]3)nccc12` (stereo partly drawn) [Example 281, 3-methyl-2-{2-[(3R)-3-methylmorpholin-4-yl]-8-(1H-pyrazol-5-yl)-1,7-naphthyridin-4-yl}butan-2-ol] was tested. Which pIC50 [1] did it give?
Answer: 7.87

Question: With `O=C1OCCN1c1cc(N2CCOCC2)nc2c(-c3ccn[nH]3)nccc12` [Example 226, 3-[2-(morpholin-4-yl)-8-(1H-pyrazol-5-yl)-1,7-naphthyridin-4-yl]-1,3-oxazolidin-2-one] as the compound, how does the pIC50 [1] read?
Answer: 5.94

Question: `C[C@@H]1COCCN1c1cc(-c2[nH]nnc2C2CC2)c2ccnc(-c3ccn[nH]3)c2n1` [Example 194, 4-(4-cyclopropyl-1H-1,2,3-triazol-5-yl)-2-[(3R)-3-methylmorpholin-4-yl]-8-(1H-pyrazol-5-yl)-1,7-naphthyridine] was tested. Which pIC50 [1] did it give?
Answer: 7.42
